Results on 8 compounds are retold here after ChEMBL document CHEMBL2034878, “Chiral resolution, absolute configuration assignment and biological activity of racemic diarylpyrimidine CH(OH)-DAPY as potent nonnucleoside HIV-1 reverse transcriptase inhibitors” (Eur J Med Chem, 2012).

Series [1] concerns Human immunodeficiency virus 2. Kind of series: Antiviral activity against HIV2 ROD […] infected in MT4 cells assessed as inhibition of virus-induced cytopathic effect after 5 days by MTT assay. The note with it: Human immunodeficiency virus 2, ISOLATE ROD, MT4, 120 h. It is filed as functional, organism-based.
The subject of series [2] is Human immunodeficiency virus 1. Kind of series: Antiviral activity against HIV1 3B harboring wild type RT infected in MT4 cells assessed as inhibition of virus-induced cytopathic effect after 5 days by MTT assay. It counts as functional, organism-based. Conditions: Human immunodeficiency virus 1, 3B, MT4, 120 h.
Series [3] is described as follows: Cytotoxicity against human MT4 cells after 5 days by MTT assay. It counts as cell-based.
In series [4] the test system is Human immunodeficiency virus 1. Kind of series: Antiviral activity against HIV1 RES056 harboring K103N/Y181C RT mutant infected in MT4 cells assessed as inhibition of virus-induced cytopathic effect after 5 days by MTT assay. It counts as functional, organism-based. The note with it: Human immunodeficiency virus 1, RES056, MT4, 120 h.
Series [5] in a line: Selectivity index ratio of CC50 for human MT4 cells to EC50 for HIV1 3B. It counts as toxicity, cell-based. Conditions: read-out: Ratio CC50/EC50.
Series [6] addresses Human immunodeficiency virus type 1 reverse transcriptase (Human immunodeficiency virus 1, UniProt Q72547). The experiment in a line: Inhibition of HIV1 wildtype reverse transcriptase using poly(rA)/oligo(dT)15 as template by colometric streptavidin alkaline phosphate reporter assay.

As for `N#Cc1ccc(Nc2nccc([C@H](O)c3ccccc3Cl)n2)cc1`, the EC50 in series [1] was above 36 µM; in series [2] it was 0.005 µM; in series [4], above 36 µM. In series [3], the CC50 at 120 h is 36 µM. The selectivity ratio in series [5] came out at 6800.
As for `N#Cc1ccc(Nc2nccc([C@@H](O)c3ccccc3Cl)n2)cc1`, the EC50 in series [1] worked out at 11 µM; in series [2] it was 0.065 µM; in series [4], 8.8 µM. Further, half-maximal cytotoxicity in series [3] (CC50 at 120 h) was put at 25 µM. In series [5], the selectivity ratio turned out to be 373.
For `N#Cc1ccc(Nc2nccc(C(O)c3ccccc3Cl)n2)cc1` (racemic), the EC50 in series [1] came to 7.6 µM; in series [4], 9.4 µM. The same compound registered a CC50 at 120 h in series [3] of 29 µM. For the same compound, in series [5], the selectivity ratio stood at 3230. Also, the IC50 in series [6] came out at 0.45 µM.
Compound `CC(C)Nc1cccnc1N1CCN(C(=O)c2cc3cc(NS(C)(=O)=O)ccc3[nH]2)CC1` [DELAVIRDINE] displayed a 50% cytotoxic concentration (CC50) at 120 h in series [3] above 4.4 µM. In series [4], the 50% effective concentration (EC50) was above 4.39 µM. Also, the selectivity ratio in series [5] is above 274.
In series [3], `O=C1Nc2ccc(Cl)cc2[C@@](C#CC2CC2)(C(F)(F)F)O1` [EFAVIRENZ] gave a 50% cytotoxic concentration (CC50) at 120 h above 6.3 µM. The concentration for a half-maximal effect (EC50) in series [4] came out at 0.44 µM.
With `Cc1cc(C#N)cc(C)c1Oc1nc(Nc2ccc(C#N)cc2)nc(N)c1Br` [ETRAVIRINE], the values for the EC50 in series [1] and in series [2] were above 28 µM and 0.002 µM, respectively. The CC50 at 120 h in series [3] was 28 µM.
For `Cc1ccnc2c1NC(=O)c1cccnc1N2C1CC1` [NEVIRAPINE], the half-maximal effective concentration (EC50) in series [1] was above 15 µM. In series [3], this compound came in with a CC50 at 120 h above 15 µM.
`Cc1cn([C@H]2C[C@H](N=[N+]=[N-])[C@@H](CO)O2)c(=O)[nH]c1=O` [ZIDOVUDINE]: the half-maximal effective concentration (EC50) in series [1] turned out to be 0.007 µM. In series [3], this compound registered a CC50 at 120 h of at least 46 µM. Moreover, the selectivity ratio in series [5] is at least 6360.
